Each structure is given as a SMILES string.

We go through 98 compounds from ChEMBL document CHEMBL3507680, “University of Dundee, Gates Library screen for HepG2 cell viability”.

This series in a line: Human HepG2 cell viability assay in 384 well format. In kind it is toxicity, cell-based. On the set-up: dose 125 nL, time 70.5 hour; concentration not given beside the values. As to conditions: HepG2 cells, read-out: Inhibition.

Consider `Cc1ccc(S(=O)(=O)NC2=NCN(CCc3cccs3)CN2)cc1`, for which the cytotoxicity at 70.5 h is -14.3%. Regarding `O=S(=O)(NC1=NCN(CCc2cccs2)CN1)c1ccc(Br)cc1`, the cytotoxicity at 70.5 h was -18.9%.

Take `CC(C)Cn1c(=O)nc2n1C(=O)N(c1ccc(F)cc1)C2`: the cytotoxicity at 70.5 h is -25.8%. Consider `O=C1CC(c2ccc(C(F)(F)F)cc2)c2c(n3ccsc3nc2=O)N1` (stereo not drawn), for which the cytotoxicity at 70.5 h is -22.1%. Turning to `CC(C)c1nnc2ccc(N3CCC(C(=O)O)CC3)nn12`, the cytotoxicity at 70.5 h is -25.9%.

On to `CNc1oc(-c2ccc(OC)c(S(=O)(=O)N3CCCC3)c2)nc1C#N`, for which the cytotoxicity at 70.5 h was -21.8%. In the case of `NC(=O)C1CCN(C(=O)CCn2ccc3ccc(F)cc32)CC1` it was -6.99%; in that of `Cc1c(C)n(-c2ccccn2)c2nc3c(c(N)c12)CCCCC3`, -10.8%; in that of `O=c1ccc(-c2cccs2)nn1CN1CCOC(c2ccccc2)C1` (stereo not drawn), -21.3%. In the case of `O=c1ccc(-c2cccs2)nn1CN1CCN(c2ccccn2)CC1` it was -23.6%.

In the case of `O=C1CC(c2ccc(Cl)c(Cl)c2)c2c(n3ccsc3nc2=O)N1` (stereo not drawn), the cytotoxicity at 70.5 h was 10%. For `CC(C)n1c(=O)nc2n1C(=O)N(c1ccc(Cl)cc1)C2`, the cytotoxicity at 70.5 h is -21.8%.

With `Cc1oc(-c2nc(C#N)c(NC(C)C)o2)cc1S(=O)(=O)N1CCCC1`, the cytotoxicity at 70.5 h was -25.3%. Take `O=C(c1cnc2ccc(F)cc2c1NCc1ccco1)N1CCCC1`: the cytotoxicity at 70.5 h was 28.7%.

Take `CCCN(CCC)c1ncc(S(=O)(=O)c2ccccc2)c(N)n1`: the cytotoxicity at 70.5 h was -15.1%. The same measure for `CCN(CC)c1ncc(S(=O)(=O)c2cccc(C)c2)c(N)n1`: 25.6%; for `Cc1ccc(-c2cc(C(=O)O)sn2)cc1`: -15.1%. For the compound `Cc1c(C(=O)O)cnn1-c1ccc(-c2nc(C(C)(C)C)no2)cn1`, the cytotoxicity at 70.5 h is -8.45%. As to `Cc1cccc(Cn2c(=O)[nH]c3csnc3c2=O)c1`, the cytotoxicity at 70.5 h was -4.48%. In the case of `CCc1c(C)n(CCC#N)c2nc3ccccc3n2c1=O` it was -9.18%; in that of `COc1ccc(-c2nnsc2C(=O)N2CCOCC2)cc1`, -11.2%; in that of `CC1(C)CC(=O)c2cnc3nc(N4CCOCC4)nc(O)c3c2C1`, -1.04%. For `COc1ccccc1C1CC(=O)Nc2c1c(=O)[nH]n2C1CCCC1` (stereo not drawn), the cytotoxicity at 70.5 h was -11.5%. Consider `CCOC(=O)CC(c1ccc(OC)c(OC)c1)c1c(O)n[nH]c1C` (stereo not drawn), for which the cytotoxicity at 70.5 h is -15.2%. The same measure for `COc1ccccc1C1SCC(=O)Nc2c1c(=O)[nH]n2C1CCCCC1` (stereo not drawn): 20.9%; for `CC(C)(C)c1csc(CCNC(=O)C(c2ccccc2)n2cnnn2)n1` (stereo not drawn): -0.915%.

Turning to `COc1cccc(-n2nc(C(C)=O)c(C(C)=O)c2C)c1`, the cytotoxicity at 70.5 h was -15.4%. The same measure for `Cc1cs/c(=N\C(=O)Cn2nc(N3CCC(C)CC3)ccc2=O)[nH]1`: -9.83%; for `CNc1cncc(C2CCN(C(=O)c3coc(C)n3)CC2)n1`: 24.2%; for `CCC1CNCc2cc3c(OC)ccc(OC)c3nc2O1` (stereo not drawn): 12.3%. As for `Cc1cc(-c2ccc(=O)n(CCNC(=O)C3CC3)n2)c(C)o1`, the cytotoxicity at 70.5 h turned out to be 0.992%.

`CN1CCN([C@@H]2CN(C(=O)c3cc4cccc(F)c4[nH]3)C[C@H]2O)CC1`: the cytotoxicity at 70.5 h is -1.94%.

For `COCC(=O)N1Cc2nc3c(C)c(-c4cccs4)nn3c(O)c2C1`, the cytotoxicity at 70.5 h was -0.72%. The same measure for `COCCNC(=O)C(C)n1nc(-c2ccc(C)o2)cc(N)c1=O` (stereo not drawn): 39.4%; for `Cc1cc2c(cc1Cl)C=CC1(CCN(CC(=O)N3CCOCC3)CC1)O2`: 25.7%. In the case of `COc1ccc(C(C)N(C)Cc2c(C(C)(C)C)[nH]c3ncccc23)cc1` (stereo not drawn) it was 12.9%; in that of `CO[C@H]1CN(C(=O)c2cn3cc(C)ccc3n2)CC[C@@]12CCCO2`, -17.2%. The same measure for `CNC(=O)CCc1cc(C2CCCN2S(C)(=O)=O)nc(C)n1` (stereo not drawn): -12.2%; for `c1ccc(CO[C@H]2CN(c3ncccn3)C[C@@]23CCCO3)cc1`: -11.5%; for `CN1CCCC1c1ccc(N2CCOCC2)cn1` (stereo not drawn): -16.8%. On to `CCN(CC)S(=O)(=O)N1CCCC1c1nnc2n1CCN(C)CC2` (stereo not drawn), for which the cytotoxicity at 70.5 h was -10.9%. With `CN1C[C@H](c2ccccc2)[C@H]2CN(C(=O)Cc3ccc(O)cc3)CC[C@H]21`, the cytotoxicity at 70.5 h stood at 22.7%.

Regarding `Cc1ccc(-c2noc(C3CCN3C(=O)c3ccc(=O)[nH]n3)n2)s1` (stereo not drawn), the cytotoxicity at 70.5 h was -4.22%. As for `Cc1ccc(-c2noc(C3CCN3C(=O)c3cc[nH]n3)n2)s1` (stereo not drawn), the cytotoxicity at 70.5 h is -14.3%. The same measure for `CC(=O)N[C@H]1CCO[C@@H](c2cccc(NC(=O)c3cccc(F)c3)c2)C1`: -8.41%. For `CN(C)C(=O)CN1CCC(c2c(C(N)=O)sc3ncccc23)C1` (stereo not drawn), the cytotoxicity at 70.5 h is -5.25%.

On to `CN(C)S(=O)(=O)N1CCCC(c2nccnc2-c2cccc(Cl)c2)C1` (stereo not drawn), for which the cytotoxicity at 70.5 h is -1.8%. The same measure for `Cn1cccc1C(=O)NCc1ccnc(C2CCCOC2)n1` (stereo not drawn): -4.4%; for `O=C(CCc1ccc(Cl)cc1)N[C@@H]1CC[C@@H](O)[C@@H]1O`: -6.03%; for `c1ccc(C2Cn3ccnc3CN2Cc2ncc[nH]2)cc1` (stereo not drawn): -1.58%. With `Cc1cc(-c2cc3nc(C)c(C)c(NCC4COCCO4)n3n2)no1` (stereo not drawn), the cytotoxicity at 70.5 h was -5.97%.

Take `O=C(c1cccnc1)N1CCOC(Cc2ccccc2Cl)C1` (stereo not drawn): the cytotoxicity at 70.5 h was 0.0235%. The same measure for `Cn1ccc(C(=O)N2CCC(Cc3ccc4ncccc4c3)CC2)n1`: 14.8%; for `OCCc1cc(C2CCCN2c2ncccn2)n[nH]1` (stereo not drawn): -2.35%. In the case of `Cc1ccnc(C2COCCN2C)n1` (stereo not drawn), the cytotoxicity at 70.5 h is -3.5%. For `CN(C)C(=O)CN1CCCC(c2nccnc2-c2cccc(Cl)c2)C1` (stereo not drawn), the cytotoxicity at 70.5 h was 1.03%. On to `CNC(=O)c1sc2ncccc2c1C1CCN(C(=O)CCOC)C1` (stereo not drawn), for which the cytotoxicity at 70.5 h is -8.16%. In the case of `CC(C)(C)C(=O)N1CCCC1c1cc(CO)[nH]n1` (stereo not drawn) it was -1.34%. For `COc1ccc(C2CN(c3cc(C)ncn3)CCN2C(C)=O)cc1` (stereo not drawn), the cytotoxicity at 70.5 h is -5.95%. Consider `CN1CCc2nc(C3CCCN(S(=O)(=O)c4ccccc4)C3)ncc2C1` (stereo not drawn), for which the cytotoxicity at 70.5 h is -1.43%. Consider `CC(NC(=O)C(C)(C)C)c1cc(O)nc(-c2cccnc2)n1` (stereo not drawn), for which the cytotoxicity at 70.5 h is -5.99%. For the compound `CCc1c(C)nn2c(O)cc(C3CCN(C(=O)c4cnn(C)c4)C3)nc12` (stereo not drawn), the cytotoxicity at 70.5 h is -0.531%.

Take `Cc1cc(C(=O)N2CCN(c3ncc4c(n3)CCOC4)CC2)sc1C`: the cytotoxicity at 70.5 h was 2.24%. On to `Cc1sc(Oc2ccccc2Cl)nc1C(=O)O`, for which the cytotoxicity at 70.5 h was 7.28%. The same measure for `CCCn1cc(CN2CCOCC2c2[nH]ncc2C)cn1` (stereo not drawn): -2.99%; for `CCOCC(=O)N1CCC(C)(c2nccs2)CC1`: 13.6%. As for `CN(C)Cc1cccc(-c2cccnc2C(=O)NCc2cn(C)cn2)c1`, the cytotoxicity at 70.5 h is -1.14%. On to `O=C(Cc1cccs1)NCc1ccnc(C2CCCOC2)n1` (stereo not drawn), for which the cytotoxicity at 70.5 h was found to be 3.29%. The same measure for `Cc1cc(C)nc(N2CC[C@H](Oc3ccccc3F)[C@@H](O)CC2)n1`: -3.75%; for `COCC(=O)N1CCc2nc(-c3cnccn3)nc(O)c2C1`: -8.12%; for `Cc1ccc2[nH]c(=O)c(CNCCCN3CCOCC3)cc2c1`: -8.68%.

`O=C(Cc1ccccn1)N1CCc2c(O)nc(-c3cnccn3)nc2C1`: the cytotoxicity at 70.5 h was -6.46%. The same measure for `Cc1ccc2cc(CNCCCN3CCOCC3)c(=O)[nH]c2c1C`: -8.68%; for `CC(C)(C)C(=O)N1CCC(n2nc(-c3ccco3)ccc2=O)CC1`: -4.38%. In the case of `O=C1NCC2(CCCN(Cc3ccc(F)cc3)C2)Oc2ccccc21` (stereo not drawn) it was -1.98%. As to `O=C(CCc1ccccc1)N1CCCC(c2n[nH]c3nccnc23)C1` (stereo not drawn), the cytotoxicity at 70.5 h was -6.72%. Regarding `CSc1ccc(CN2CCCC3(CNC(=O)c4ccccc4O3)C2)cc1` (stereo not drawn), the cytotoxicity at 70.5 h was determined as 2.19%.

`CCc1nc2ccccc2c(=O)n1CC1(O)CCN(C(=O)C(C)C)CC1`: the cytotoxicity at 70.5 h is -8.49%. The same measure for `O=C(Cc1ccsc1)N1CCCC(c2n[nH]c3ncccc23)C1` (stereo not drawn): -5.61%. Take `CS(=O)(=O)N1CCC(C(=O)NC(Cc2ccsc2)c2cccnc2)CC1` (stereo not drawn): the cytotoxicity at 70.5 h was found to be 23.2%. In the case of `Cc1nc(C2CCN(C(=O)c3cscn3)CC2)c2sccn12` it was -1.33%; in that of `Cc1cc(-c2cnn(CCNC(=O)c3cnn(C)c3)c2C2CC2)on1`, -2.33%.

For the compound `CCc1cccc2cc(CNCCCN3CCOCC3)c(=O)[nH]c12`, the cytotoxicity at 70.5 h came to 0.0251%.

`Cc1cccc(CN2CCC(c3nnsc3S(C)(=O)=O)CC2)n1`: the cytotoxicity at 70.5 h is -4.43%.

As to `CS(=O)(=O)c1snnc1C1CCN(Cc2cccnc2)CC1`, the cytotoxicity at 70.5 h was 8.4%. The same measure for `CNc1ncc(CN2CCC(c3nnsc3S(C)(=O)=O)CC2)cn1`: -7.26%. The same measure for `Cc1ccc(C(=O)N2CCC[C@@H]2Cn2nnc3c(O)nc(C)nc32)cc1`: -2.37%.

For the compound `CC(CNCc1ccc(Br)cc1)Oc1ccccn1` (stereo not drawn), the cytotoxicity at 70.5 h was 2.54%. Turning to `CCC(=O)N1C[C@@H](C(=O)NC)[C@H](c2ccnc(N3CCCC3)n2)C1`, the cytotoxicity at 70.5 h was -3.94%. The same measure for `CN(CCc1ccccc1)Cc1c(C2CCNCC2)[nH]c2ncccc12`: -6.11%; for `CCc1onc(C)c1C(=O)N1CCN(c2ncc3c(n2)CCOC3)CC1`: -1.33%.

With `Cc1nc(O)cc(C2(C)CCCNC2)n1` (stereo not drawn), the cytotoxicity at 70.5 h is -3.13%.

`Cn1nc(C2CCCN(Cc3ccc(F)c(F)c3)C2)c2nccnc21` (stereo not drawn): the cytotoxicity at 70.5 h was determined as 27.1%. For `COc1cccc(CN2CCCC(c3nn(C)c4nccnc34)C2)c1` (stereo not drawn), the cytotoxicity at 70.5 h is 14.8%. For the compound `Cn1nc(C2CCN(C(=O)Cc3ccsc3)CC2)c2cccnc21`, the cytotoxicity at 70.5 h was -7.5%. Regarding `Cn1nc(C2CCN(C(=O)CCN3CCOCC3)CC2)c2cccnc21`, the cytotoxicity at 70.5 h is -2.43%. `CCc1nc2ccccc2c(=O)n1CC1(O)CCN(C(=O)COC)CC1`: the cytotoxicity at 70.5 h is -2.82%.

Take `OC[C@H]1CC[C@]2(CC1)CN(Cc1ccsc1)Cc1ccccc1O2`: the cytotoxicity at 70.5 h was determined as 7.87%.
